Reference: US20100143960A1, “CYANINE DERIVATIVES, FLUORESCENT CONJUGATES CONTAINING SAME AND USE THEREOF” (CIS BIO INTERNATIONAL, priority 2007, published 2010)

Key:
[1] = Comparison of quantum yields / fluorescence spectrum of cyanine derivatives carrying phosphonate groups; format: physicochemical
Description: Fluorescence spectrum: Measurement on a Perkin-Elmer LS50 device, the samples were diluted in phosphate buffer 0.1M pH 7 containing 0.1% BSA (maximum absorbance=0.04 at the excitation wavelength). Excitation: 600 nm (10 nm). Emission (max)=670.5 nm (quantum yield=13%).
The phosphate/phosphonate ester functional groups of the cyanine derivatives according to the invention are hydrolyzed in the cell by cell enzymes to give phosphate/phosphonate functional groups. The quantum yields of the cyanine derivatives carrying phosphonate groups, thus corresponding to the compounds according to the invention as present in the cell after hydrolysis of the ester functional groups, were measured in order to determine if the position of the phosphate/phosphonate ester groups influences the photophysical properties of the compounds.

[2] = system: stable CHO line expressing SnapTag in the nucleus; assay: Test of cell permeability of benzylguanine conjugates (fluorescence microscopy); format: cell-based; conditions: 5 μM in culture medium, one hour contact, washing, additional hour, microscopic analysis, FIG. 1
Description: The cells used result from a stable CHO line expressing SnapTag in the nucleus by virtue of the NLS sequence. The compounds are added to the culture medium (DMEM medium supplemented with 10% of inactivated SVF, 30 min at 60° C.) at a concentration of 5 μM and left in contact with the cells for one hour. After the incubation, three washing operations are carried out with culture medium. An additional hour of incubation solely in the medium is carried out in order to make possible the labeling of the SnapTag by the substrate. Staining of the […] is subsequently carried out with DAPI before the microscopic analysis.
The above images are represented in FIG. 1.

[3] = system: fusion protein GST-ST26-Flag in CHO-K1 cells; assay: Labeling of an intracellular protein in intact living cells, detected by HTRF measurement; format: cell-based; conditions: 5 μM substrate, 3 h at 20° C.
Description: This example is targeted at showing that the compounds according to the invention comprising a phosphonate ester and conjugated to a substrate (benzylguanine, BG) for a “snaptag” suicide enzyme (ST26) are capable of passing through the cell membrane and of labeling a fusion protein expressed by the cell and comprising the snaptag enzyme ([…]), in contrast to the use of a cyanine not comprising phosphonate esters (DY-647).
The HTRF technique is used to test the intracellular labeling of a protein by the cyanine derivatives according to the invention, on living cells, using the recombinant protein GST-ST26-Flag produced by the cells and labeled indirectly via an anti-GST antibody conjugated with a europium trisbipyridine cryptate (anti-GST-EuTBP).
After culturing, CHO-K1 cells are transfected in the presence of lipofectamine 2000 (0.8 μl per 50 μl of transfection solution, Lipofectamine™ Transfection Reagent, Invitrogen Inc., Carlsbad, Calif.) at the rate of 50 000 cells per well in a black 96-well microplate. The transfected cells are subsequently incubated for 24 h at 37° C., 5% CO2. […]
The fluorescence at 665 nm is measured on an HTRF reader (RUBYstar, BMG Labtechnologies). […]

[4] = aqueous medium, nonsulfonated; cited from earlier work
[5] = in solution; cited from earlier work
[6] = phosphate buffer 0.1M pH 7 containing 0.1% BSA, excitation 600 nm

**Q.** What does the source list for “2-{(1E,3E,5E)-5-[3-(5-Carboxypentyl)-3-methyl-4-ethyl-5-phosphono-1,3-dihydro-2H-indol-2-ylidene]penta-1,3-dienyl}-5-phosphono-3,3-dimethyl-1-(4-ethyl)-3H-indolium [compound 19]”?
**A.** Emission (max) [1, 6]: 670.5 nm; quantum yield [1, 6]: 13%; Wavelength of max. absorption ([1]; phosphonate (hydrolyzed) form): 649 nm; Wavelength of max. emission ([1]; phosphonate (hydrolyzed) form): 670 nm; quantum yield ([1]; phosphonate (hydrolyzed) form): 13%

**Q.** With `CCN1/C(=C/C=C/C=C/C2=[N+](CC)c3ccc(S(=O)(=O)[O-])cc3C2(C)C)C(C)(CCCC(=O)NCc2ccc(COc3nc(N)nc4[nH]cnc34)cc2)c2cc(S(=O)(=O)O)ccc21` (stereo not shown) [BG-DY647] as the molecule, how does the “passage through the plasma membrane of the cells (intracellular fluorescence)” value [2] read?
**A.** have not passed through the plasma membrane

**Q.** What about the “percentage of intracellular labeling (signal at 665 nm passive labeling / total labeling)” value ([3]; CHO-K1, HTRF with anti-GST-EuTBP, FIG. 2) of the same molecule?
**A.** penetrates poorly into cells

**Q.** And the “passes through the cell membrane and labels an intracellular protein” value ([3]; intact CHO-K1 cells)?
**A.** not the case

**Q.** Which solubility [4] does the source give for `CN1C(=CC=C2CCCC(C=CC3=[N+](C)c4ccccc4C3(C)C)=C2Cl)C(C)(C)c2ccccc21.[O-][Cl+3]([O-])([O-])[O-]` [IR-786] here?
**A.** less than 10 μM

**Q.** For `CC1(C)C(/C=C/C=C/C=C/C=C2\N(CCCCS(=O)(=O)O)c3ccc4ccccc4c3C2(C)C)=[N+](CCCCS(=O)(=O)[O-])c2ccc3ccccc3c21` [indocyanine green], which “concentration above which quantum yield falls due to formation of aggregates” value [5] is on record?
**A.** greater than 125 μM
